Experimental data published in patent US5472951A, “Stabilizer for phospholipid vesicles” (Chiba Flour Milling Co., Ltd., priority 1992, dated 1995).
Each block holds one compound with its values, some of them ahead of it.

How the values were obtained:
Type in all cases: physicochemical
[1] = turbidity increase, standing at 4 °C for 24 hours; conditions: for turbidity increase rate relative to unmodified DPPC vesicle dispersion (100%): Table 3 / Example 11 series
[2] = introduction ratio into the vesicle (phenol-sulfuric acid method); conditions: 2 mol % modifier; for introduction ratio: 4 °C, 24 hours
Description: The ratio of introduction of the stabilizer into the vesicles is determined by treating the dispersion of the vesicles by gel filtration or ultracentrifuge to remove the superfluous stabilizer which has not been introduced into the vesicles, and quantitatively determining saccharide in respective fractions by a phenol-sulfuric acid method. The stabilizer of the present invention, when employed in an amount of from 2 to 10 mol %, is introduced into the vesicles in a ratio of 90% or more.
The stability of the vesicle dispersion which had been passed through the 0.05 μm filter was evaluated by measuring the change of absorbance (turbidity) at 500 nm with time on standing at room temperature by means of a UV-visible light spectrophotometer.
2.4 mg of DOMG prepared in the same manner as in Example 11 was dissolved in 1 ml of chloroform. This solution was mixed with a solution of 100 mg of DPPC in 5 ml of chloroform, thereby DOMG being 2 mol % of DPPC. The solution mixture was evaporated by means of an evaporator to form a thin film on the inside wall of an eggplant-shape flask. Then 10 ml of pure water was added thereto so as to obtain a concentration of 1.0% by weight of the vesicles. The mixture was stirred with glass beads by means of a vortex mixer, and subsequently treated by an extruder to prepare a dispersion of DOMG-modified DPPC vesicles having controlled diameters of particles. A portion of the resulting dispersion was diluted to a fivefold volume with pure water to prepare a dispersion having vesicle concentration of 0.2% by weight.
The two dispersions of the DOMG-modified vesicles having concentrations of 1.0% by weight and 0.2% by weight were left standing at 4° C. for 24 hours, and were ultracentrifuged (300000 G, 60 minutes). The free DOMG in the supernatant was determined by a phenol-sulfuric acid method, and therefrom the ratio of introduction DOMG to the vesicles was calculated.
As the results, the introduction ratios were 94.3%, and 77.0% respectively at the vesicle concentrations of 1.0% by weight and 0.2% by weight. The results are shown in Table 4 together with the results of Comparative Examples 6 and 7 described later in which an oligosaccharide derivative was employed.

[3] = viscosity of vesicle dispersion on addition of calcium ion (rotating viscometer); conditions: 5 mM calcium chloride
Description: The stability of the vesicles was evaluated as below. The precipitate of the vesicles prepared by centrifuge was dispersed again into saline by a vortex mixer. To this sample, calcium chloride (as calcium ion) was added to be 5 mM, and the viscosity of the dispersion was measured with a rotating viscometer (Vismetron VS-AK). The viscosity of 5 cp was not changed by addition of the calcium ion.
To this dispersion, calcium chloride (as calcium ion) was added to be 5 mM, and the viscosity of the dispersion was measured with a rotating viscometer (Vismetron VS-AK).
To this dispersion, calcium chloride (as calcium ion) was added to be 5 mM, and the viscosity of the dispersion was measured with a rotating viscometer (Vismetron VS-AK). The viscosity of 5 cp was not changed by addition of the calcium ion. On the contrary, the dispersion of the vesicles prepared from powdery lipid mixture not containing DACOA (DPPC:cholesterol:distearylphosphatidic acid=10:9:0.9 in molar ratio) aggregated immediately on addition of calcium ion because of negative charge on the surface of the vesicle, causing the viscosity rise up to 11 cp.
The stability of the dispersion of the DOLG-modified vesicles having adjusted particle diameters was evaluated by addition of 5 mM calcium chloride and observing the viscosity change. The viscosity was measured at 37° C. by a rotating viscometer. […] On the contrary, a dispersion of unmodified vesicles prepared from a powdery lipid mixture containing no DOLG (DPPC:cholesterol:stearic acid=7:7:2 in molar ratio) caused immediate aggregation of the vesicles on addition of calcium ion in the same manner as above because of the negative charge on the surface of the vesicle, and the viscosity increased up to 11 cp. Accordingly, the sufficient effect of the DOLG, a vesicle stabilizer of the present invention, was confirmed in inhibiting the aggregation of vesicles by calcium ion.

[4] = particle diameter of modified vesicles; conditions: for average diameter: ultrasonicator (Example 5 series)
[5] = dispersion stability: turbidity increase at 500 nm, standing at 25 °C for 3 days
[6] = aggregation on addition of dextran: turbidity at 800 nm; conditions: 2.5 wt % dextran (MW 40000), DPPC:cholesterol:stearic acid:STEC 7:7:2:2
Description: The precipitation of the vesicles was dispersed again to be 5 wt %, and thereto dextran (molecular weight of 40000) was added as a colloid osmotic pressure controller. The stability of the dispersion was observed by determination of turbidity at 800 nm.
The stability of the MPDSPE-modified vesicle was evaluated by adding, to the above dispersion, dextran (molecular weight: 4000) which is a colloid osmotic pressure controller, and measuring the turbidity from the absorbance at 800 nm. […] This proves the aggregation inhibition effect of the MPDSPE of the vesicle stabilizer of the present invention.
The resulting dispersion was treated with a microfluidizer at 2500 psi at 4° C. for 15 minutes to obtain a dispersion of SDSPE-modified vesicles having average particle diameter of 350±95 nm. This dispersion was centrifuged (100000 G, 30 minutes) to obtain a precipitate of vesicles. The precipitate was dispersed again into a solution to be 5% by weight. Occurrence of aggregation of the vesicles was tested by adding dextran (molecular weight 40000) to the dispersion and measuring the turbidity change at 800 nm. […] Therefrom the modification was confirmed to be effective to inhibition of aggregation caused by dextran.
5.0 g of a powdery lipid mixture containing the above STEC (DPPC:cholesterol:stearic acid:STEC=7:7:2:2 in molar ratio) was dispersed in 100 ml of saline, and the dispersion was stirred at 4° C. for 24 hours. The resulting dispersion was treated with a microfluidizer at 2500 psi at 4° C. for 15 minutes. This dispersion was centrifuged (10000 G, 30 minutes) to obtain precipitate of STEC-modified vesicles. The precipitate was dispersed again in to saline to be 5 wt %. The stability of the vesicles was evaluated by adding 2.5 wt % solution of dextran (molecular weight 40000) to the above vesicle layer and measuring the turbidity change at 800 nm. The STEC-modified vesicles caused the turbidity increase of 58% of that of the unmodified vesicles (DPPC:cholesterol:stearic acid=7:7:2 in molar ratio), thereby the inhibition effect of STEC, a vesicle stabilizer of the present invention being confirmed.

[7] = mixed lipid vesicles, 0.2 μm filter by extruder
[8] = Table 2 / Example 8 series, 5 mol % modifier
[9] = DPPC vesicle, 5 mol % modifier (Example 8 series)
[10] = Table 1 / Example 5 series, about 5 mol % modifier
[11] = DPPC vesicle, about 5 mol % modifier

Compound: Dioctadecylmaltopentaosyl glycerol [DOMPG]
turbidity increase rate relative to unmodified DPPC vesicle dispersion (100%) ([1]; 5 mol % modifier, 24 hours): 12.1%
introduction ratio in comparison with DOMG (in words) [2]: low in comparison with that of DOMG
introduction ratio ([2]; vesicle concentration 0.2 wt %): 70.9%
introduction ratio ([2]; vesicle concentration 1.0 wt %): 83.2%

Compound: CCCCCCCC/C=C\CCCCCCCCNC(=O)[C@H](NC(C)=O)[C@@H](O)[C@H](O[C@@H]1O[C@H](CO)[C@@H](O)[C@H](O)[C@H]1NC(C)=O)[C@H](O)CO [DACOA, di-N-acetylchitobiose oleylamine]
viscosity change on addition of calcium ion (in words) [3]: not changed
viscosity of the dispersion with calcium ion ([3]; Vismetron VS-AK): 5 cp
average particle diameter [4, 7]: 200 nm

Compound: dioctadecyl lactosyl glycerol [DOLG]
viscosity change on addition of calcium ion (in words) [3]: without viscosity increase
viscosity of the dispersion with calcium ion ([3]; 37 °C, shear rate 1.15 sec^-1): 5 cp

Compound: CC(C)CCC[C@@H](C)[C@H]1CC[C@H]2[C@@H]3CC=C4C[C@@H](OCCOCCOCCOCCOC5O[C@H](CO)[C@@H](O[C@@H]6O[C@H](CO)[C@@H](O)[C@H](O)[C@H]6O)[C@H](O)[C@H]5O)CC[C@]4(C)[C@H]3CC[C@]12C (stereo partly shown) [STEC, cellobiosyl tetraethyleneglycosyl cholesterol]
turbidity increase on dextran addition relative to unmodified vesicles [6]: 58%

Compound: CCCCCCCCCCCCCCCCCCOCC(COC1O[C@H](CO)[C@@H](O[C@H]2O[C@H](CO)[C@@H](O)[C@H](O)[C@H]2O)[C@H](O)[C@H]1O)OCCCCCCCCCCCCCCCCCC (stereo partly drawn) [DOMG, 1,2-di-octadecyl-O-α(β)-maltosyl-glycerol]
particle diameter ([4]; DPPC vesicle, about 5 mol % modifier, extruder 0.05 μm (Example 11)): 35±15 nm
increase of the turbidity depending on amount of modifier (order) ([1]; 5-20 mol %): 5 mol %>10 mol %>15 mol %>20
vesicle stabilization effect (in words) ([1]; 5 mol % modifier, 24 hours): not so effective
turbidity increase rate relative to unmodified DPPC vesicle dispersion (100%) ([1]; 5 mol % modifier, 24 hours): 45.5%
turbidity increase rate relative to unmodified DPPC vesicle dispersion (100%) ([1]; 10 mol % modifier, 24 hours): 28.9%
turbidity increase rate relative to unmodified DPPC vesicle dispersion (100%) ([1]; 15 mol % modifier, 24 hours): 16.0%
turbidity increase rate relative to unmodified DPPC vesicle dispersion (100%) ([1]; 20 mol % modifier, 24 hours): 11.2%
introduction ratio ([2]; vesicle concentration 0.2 wt %): 77.0%
introduction ratio ([2]; vesicle concentration 1.0 wt %): 94.3%

More lines, main results first:

turbidity increase rate relative to unmodified DPPC vesicle dispersion (100%) [5, 8]: 47.8%
turbidity increase rate relative to unmodified DPPC vesicle dispersion (100%) ([5]; Table 2 / Example 8 series, 10 mol % modifier): 32.5%
turbidity increase rate relative to unmodified DPPC vesicle dispersion (100%) ([5]; Table 2 / Example 8 series, 15 mol % modifier): 19.9%
turbidity increase rate relative to unmodified DPPC vesicle dispersion (100%) ([5]; Table 2 / Example 8 series, 20 mol % modifier): 15.6%
turbidity increase rate relative to unmodified DPPC vesicle dispersion (100%) ([5]; Table 2 / Example 8 series, 25 mol % modifier): 17.2%
average particle diameter [4, 9]: 41±19 nm
average particle diameter ([4]; DPPC vesicle, 10 mol % modifier (Example 8 series)): 35±13 nm
average particle diameter (in words) ([4]; DPPC vesicle, 15 mol % (MCA also 25 mol %) modifier): Nearly the same diameters
average particle diameter ([4]; DPPC vesicle, 20 mol % modifier (Example 8 series)): 36±10 nm
Compound: CCCCCCCCCCCCCCCCNC(=O)[C@H](O)[C@@H](O)[C@H](O[C@H]1O[C@H](CO)[C@@H](O)[C@H](O)[C@H]1O)[C@H](O)CO [MCA, maltose cetyl amide]
increase of the turbidity depending on amount of modifier (order) ([5]; 5-25 mol %): 5 mol %>10 mol %>15 mol %>20 mol % ≤25 mol %

turbidity increase rate relative to unmodified DPPC vesicle dispersion (100%) [5, 10]: 6.3%
turbidity increase rate relative to unmodified DPPC vesicle dispersion (100%) [5, 8]: 12.7%
turbidity increase rate relative to unmodified DPPC vesicle dispersion (100%) ([5]; Table 2 / Example 8 series, 5 mol % modifier, listed as MCPA): 10.3%
turbidity rise / aggregation inhibiting effect (in words) ([5]; about 5 mol % modifier): little rise in turbidity
average particle diameter [4, 9]: 32±9 nm
average diameter [4, 11]: 32±7 nm
Compound: CCCCCCCCCCCCCCCCNC(=O)[C@H](O)[C@@H](O)[C@H](O[C@H]1O[C@H](CO)[C@@H](O[C@H]2O[C@H](CO)[C@@H](O[C@H]3O[C@H](CO)[C@@H](O[C@H]4O[C@H](CO)[C@@H](O)[C@H](O)[C@H]4O)[C@H](O)[C@H]3O)[C@H](O)[C@H]2O)[C@H](O)[C@H]1O)[C@H](O)CO [MPCA, maltopentaose cetyl amide]

turbidity increase rate relative to unmodified DPPC vesicle dispersion (100%) [5, 10]: 65.4%
average diameter [4, 11]: 38±8 nm
Compound: Maltopentaose dipalmitate [MPDP, reference compound]

inhibition of aggregation of vesicles by calcium ion (in words) [3]: inhibited nearly completely
viscosity change on addition of calcium ion (in words) [3]: not changed at all
viscosity of the dispersion with calcium ion ([3]; Vismetron VS-AK): 5 cp
average particle diameter [4, 7]: 200 nm
Compound: CCCCCCCCCCCCCCCCCCNC(=O)[C@H](O)[C@@H](O)[C@H](O)[C@H](O)CO[C@H]1O[C@H](CO[C@H]2O[C@H](CO[C@H]3O[C@H](CO[C@H]4O[C@H](CO[C@H]5O[C@H](CO)[C@@H](O)[C@H](O)[C@H]5O)[C@@H](O)[C@H](O)[C@H]4O)[C@@H](O)[C@H](O)[C@H]3O)[C@@H](O)[C@H](O)[C@H]2O)[C@@H](O)[C@H](O)[C@H]1O [IHSA, Isomaltohexose stearylamide]

turbidity increase rate relative to unmodified DPPC vesicle dispersion (100%) [5, 10]: 12.7%
turbidity increase rate relative to unmodified DPPC vesicle dispersion (100%) [5, 8]: 11.2%
average particle diameter [4, 9]: 34±12 nm
average diameter [4, 11]: 34±12 nm
turbidity increase rate relative to unmodified DPPC vesicle dispersion (100%) ([1]; 5 mol % modifier, 24 hours): 13.5%
introduction ratio in comparison with DOMG (in words) [2]: low in comparison with that of DOMG
introduction ratio ([2]; vesicle concentration 0.2 wt %): 48.5%
introduction ratio ([2]; vesicle concentration 1.0 wt %): 75.8%
Compound: Maltopentaose monopalmitate [MPMP, reference compound]
